{"source": "paper PMC2784226", "about": "“Degradation of Host Sphingomyelin Is Essential for Leishmania Virulence” (PLoS Pathogens, 2009)", "molecular_target": "T1, ScISC1 (Saccharomyces cerevisiae, UniProt P40015)", "T1 construct": "gene ISC1; full-length ORF expressed in L. major iscl- null mutant; whole cell lysate", "T1 sequence (P40015 whole entry)": "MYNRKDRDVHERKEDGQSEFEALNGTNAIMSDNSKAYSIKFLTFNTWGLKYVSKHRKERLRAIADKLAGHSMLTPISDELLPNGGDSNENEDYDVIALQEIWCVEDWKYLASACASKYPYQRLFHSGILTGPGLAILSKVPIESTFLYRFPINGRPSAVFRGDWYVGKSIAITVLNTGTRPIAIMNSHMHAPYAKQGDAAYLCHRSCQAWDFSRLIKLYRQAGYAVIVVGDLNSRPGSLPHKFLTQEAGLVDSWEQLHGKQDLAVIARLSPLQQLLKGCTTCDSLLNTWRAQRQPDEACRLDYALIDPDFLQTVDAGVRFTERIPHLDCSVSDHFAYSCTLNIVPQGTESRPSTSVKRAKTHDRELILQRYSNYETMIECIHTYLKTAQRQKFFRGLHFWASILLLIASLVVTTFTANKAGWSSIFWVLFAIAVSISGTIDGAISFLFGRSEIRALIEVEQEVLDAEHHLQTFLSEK", "assay": "TLC of NBD-ceramide, intact parasites and whole cell lysate", "type": "cell-based", "conditions": "labelled compound; expressed in iscl- null mutant"}
{"smiles": "CCCCCCCCCCCCC/C=C/[C@@H](O)[C@H](COP(=O)([O-])OCC[N+](C)(C)C)NC(=O)CCCCCNc1ccc([N+](=O)[O-])c2nonc12", "note": "[NBD C6-sphingomyelin, N-[6-[(7-nitro-2-1,3-benzoxadiazol-4-yl)amino]hexanoyl]-sphingosine-1-phosphocholine]", "values": [{"measurement": "TLC of NBD-ceramide, intact parasites and whole cell lysate", "value": "expression of ScISC1 restored the ability to degrade sphingomyelin in iscl^−"}]}
